In this assay the target is T1, Alpha-2C adrenergic receptor (Rattus norvegicus, UniProt P22086).
T1 sequence (P22086 whole entry): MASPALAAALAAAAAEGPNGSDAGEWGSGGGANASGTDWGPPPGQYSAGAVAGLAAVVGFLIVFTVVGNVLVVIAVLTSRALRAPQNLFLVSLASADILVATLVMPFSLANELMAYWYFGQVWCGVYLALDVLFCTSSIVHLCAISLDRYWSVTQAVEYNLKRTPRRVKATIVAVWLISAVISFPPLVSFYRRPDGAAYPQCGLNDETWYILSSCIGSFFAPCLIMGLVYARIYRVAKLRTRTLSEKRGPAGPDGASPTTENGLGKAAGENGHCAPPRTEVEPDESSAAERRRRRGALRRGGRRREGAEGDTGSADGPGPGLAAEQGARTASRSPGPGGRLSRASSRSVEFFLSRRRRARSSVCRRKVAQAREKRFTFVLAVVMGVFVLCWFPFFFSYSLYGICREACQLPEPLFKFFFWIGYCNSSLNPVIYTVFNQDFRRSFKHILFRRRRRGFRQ
For `[N-]=[N+]=Nc1ccc(NP(=O)(O)OP(=O)(O)OP(=O)(O)OC[C@H]2O[C@@H](n3cnc4c(=O)[nH]c(N)nc43)[C@H](O)[C@@H]2O)cc1` [CAS_59803-98-4], the Ki turned out to be 1.6 nM.
With `Nc1nc2c(ncn2[C@@H]2O[C@H](COP(=O)(O)OP(=O)(O)NP(=O)(O)O)[C@@H](O)[C@H]2O)c(=O)[nH]1` [CAS_59803-98-4] the figure was 6.2 nM; with `Nc1ncnc2c1ncn2[C@@H]1O[C@H](COP(=O)(O)OP(=O)(O)OP(=O)(O)O)[C@@H](O)[C@H]1O`, 3.1 nM.

(Values after BindingDB's records for doi:10.1016/s0165-0270(00)00358-7 (University of Nebraska, 2001).)
